Measured values published in PMC2709466, “Heteroarotinoids with Anti-Cancer Activity Against Ovarian Cancer Cells” (The Open Medicinal Chemistry Journal, 2007).

How the values were obtained:
[1] = design: method as in PMID 9357524; conditions: mice; cited from earlier work
[2] = test system: A2780 ovarian cancer cells; assay: CellTiter 96 AQueous One Solution (MTS) cytotoxicity assay, 48 h, A2780; format: cell-based; conditions: for EC50: Homo sapiens, A2780 ovarian cancer cells, 48 hours of treatment, read-out: Potencies (EC50 values) of Growth Inhibition Activity, A2780 Ovarian Cancer; for Growth inhibition of ovarian cancer cultures (in words): A2780, Fig. 4; for Differential effects on cancer cells versus normal cells (therapeutic window): A2780 versus normal endometrial cells, Fig. 4C and Table 4
Description: (§1) The CellTiter 96 AQueous One Solution Cell Proliferation Assay (Promega) was used to measure living cells remaining after 48 hours of incubation with or without a range of concentrations for the heteroarotinoids. MTS [3-(4,5-dimethylthiazol-2-yl)-5-(3-carboxymethoxyphenyl)-2-(4-sulfophenyl) -2H-tetrazolium, inner salt], a novel tetrazolium compound, was added to each well and incubated for 4 hours, followed by addition of a solublization/stop solution. After overnight incubation, the optical density (OD) of each well was determined by measuring the absorbance at 540 nm using a Dynex MRX Revelation microtiter plate reader. Treatments were performed in triplicate, and the growth indices were derived by dividing the average OD540 of each treatment by the average OD540 of control cultures. The results represent the average and standard error of two to three independent experiments.
(§2) The A2780 ovarian cancer cells were cultured in RPMI media, and normal endometrial cells were cultured in MEM media. Both media contained fetal bovine serum (FBS), sodium pyruvate, and antibiotic/antimycotic. The normal endometrial cells were collected from a healthy premenopausal […] and used prior to passage as previously described.
The abilities of the new heteroarotinoids to inhibit cancer growth were compared by growing the ovarian cancer cell line (A2780) in the absence and presence of various concentrations of the different compounds. The amount of cells remaining after 48 hours of treatment was measured using a cytotoxicity assay. The optical density (OD) endpoint of the assay represents the number of cells remaining after 48 hours of treatment. The Growth Index was derived by dividing the OD of treated cultures by the OD of untreated cultures. The results are presented in graphic form where Growth Index on the y axis represents the number of cells remaining after 48 hours of treatment relative to untreated controls, and the x axis represents the concentration of drug added. The lower the Growth Index, the greater the growth inhibition.

normal endometrial cells = assay: CellTiter 96 AQueous One Solution (MTS) cytotoxicity assay, 48 h, normal cells; format: cell-based; conditions: 48 hours of treatment, read-out: Potencies (EC50 values) of Growth Inhibition Activity, Normal Endometrium
Description: as §1, §2

[3] = design: method as in PMID 16534614; conditions: cited from earlier work
[4] = design: method as in PMID 16534614; conditions: preliminary evidence; cited from earlier work
cancerous cell phenotype = test system: cancerous cell phenotype; design: method as in PMID 11287445; conditions: at 3 μM; cited from earlier work
[5] = preclinical testing; cited from earlier work
A2780 cells = assay: Annexin-V-FITC / propidium iodide apoptosis assay (flow cytometry); format: cell-based; conditions: 10 µM, 24 hours
Description: Cells were plated in 6-well tissue culture dishes at a cell density of 1 x 10^5 cells/well. After allowing cells to adhere to the dishes overnight, parallel cultures were treated with varying concentrations of heteroarotinoids or the same volume of DMSO solvent for 24 hours. The Vybrant™ Apoptosis Assay Kit #3 (Molecular Probes) was then utilized to measure apoptosis and necrosis. Tissue culture medium in each well was collected to harvest cells that had already lifted off the tissue culture plate. These were combined with adherent cells that were harvested by trypsinization. The cells were pelleted by centrifugation and resuspended in 100 μL of 1X annexin-binding buffer, and then they were incubated with 5 µl of annexin V conjugated to fluorescein (Annexin-V-FITC) and 1 µL of 100 µg/mL propidium iodide (PI) for 15 minutes at room temperature. The solution was then mixed gently with an additional 400 µl of 1X annexin-binding buffer, and the samples were evaluated with a FACSCalibur (Becton Dickinson) automated benchtop flow cytometer at an excitation wavelength of 488 nm with observation wavelengths of 530 nm and 575 nm. Flow cytometry data were quantified using Summit for MoFlo Acquisition and Sort Control Software (Cytomation, Inc). […]

Row | melting point [°C] | Structure (SMILES) | EC50 [2] [µM] | EC50 (normal endometrial cells) [µM] | Growth inhibition of ovarian cancer cultures (in words) [2] | Differential effects on cancer cells versus normal cells (therapeutic window) [2] | other results
1 |  | CC1=C(/C=C/C(C)=C/C=C/C(C)=C/C(=O)O)C(C)(C)CCC1 [Compound 1, trans-retinoic acid] |  |  |  |  | maximum tolerated dose (MTD) [1]: 10 mg/kg/day
2 | 113 to 115 | Cc1ccc2cc(NC(=S)Nc3ccc([N+](=O)[O-])cc3)ccc2n1 [Compound 9a, 1-(2-Methylquinolin-6-yl)-3-(4-nitrophenyl) thiourea] | 5 | > 1000 |  |  | 
3 | 241 to 242 | Cc1ccc2cc(NC(=O)Nc3ccc([N+](=O)[O-])cc3)ccc2n1 [Compound 9b, 1-(2-Methylquinolin-6-yl)-3-(4-nitrophenyl)urea] | 7.86 | > 1000 |  |  | 
4 |  | CCOC(=O)c1ccc(NC(=O)Nc2ccc3nc(C)ccc3c2)cc1 [Compound 9c, Ethyl 4-[3-(2-Methylquinolin-6-yl)ureido]benzoate] | 4.88 | > 1000 |  |  | 
5 |  | CC1(C)CC(C)(C)c2cc(NC(=S)Nc3ccc([N+](=O)[O-])cc3)ccc2S1 [Compound 10a, [4-nitrophenylamino][(2,2,4,4-tetramethylthiochroman-6-yl)amino]methane-1-thione] | 1.72 | 2.97 | micromolar range | differential effects | Binding to proteins in mouse plasma [3]: binds strongly; Concentrations achieved and maintained in animal models [4]: micromolar concentrations; Effects on differentiation (cancerous cell phenotype): normalization of the cancerous cell phenotype and induction of orderly tissue architecture; Toxicity, skin irritancy, teratogenicity [5]: without evidence of toxicity, skin irritancy, or teratogenicity
6 |  | CC1(C)CC(C)(C)c2cc(NC(=O)Nc3ccc([N+](=O)[O-])cc3)ccc2S1 [Compound 10c, 1-(2,2,4,4-Tetramethylthiochroman-6-yl)-3-(4-nitrophenyl)urea] | 1.02 | 2.29 | micromolar range | differential effects | Induction of apoptosis (Annexin-V-FITC staining) (A2780 cells): induces positive staining for Annexin-V-FITC; Degree of apoptosis induced, 10c compared with 10a (A2780 cells; Fig. 5C): slightly higher
